# From US20030092603A1, “Identification of specific modulators of bone formation” (priority 2001, published 2003)
# Peptide text beside a SMILES is read from it. * marks the point of attachment. Cbz = O=C(OCc1ccccc1)*
# Experiments:
# Smad1 = assay: Smurf1-induced Smad1 degradation in C2C12 cells transfected with Smad1 and Smurf1; type: cell-based; conditions: 24 h
# Experimental: Effects of proteasome inhibitors on steady-state levels of Smad1 protein were examined in C2C12 cells. C2C12 cells were plated in 6-well culture plates at density of 2×10^5 cells/well and cultured with DMEM supplemented with 10% FCS for 24 h. The cells were then transfected with Smad1 and Smurf1 expression plasmids. 24 h after transfection, the cells were treated with different proteasome inhibitors at different concentrations and incubated for additional 24 h.
# endogenous Smad1 = assay: Steady-state levels of endogenous Smad1 in C2C12 cells, Western blot; type: cell-based; conditions: 24 hours, vs control
# Experimental: To determine the effects of proteasome inhibitors on the steady-state levels of endogenous Smad1 protein, C2C12 cells were plated in 6-well culture plates (2×10^5 cells/well) and cultured with DMEM supplemented with 10% FCS. 24 h later, proteasome inhibitors lactacystin (10 μM), MG-132 (2.5 and 5 μM), PS-1 (25 and 50 nM) were added into C2C12 cells. The cells were cultured with the proteasome inhibitors for 24 hours and then the cell lysates were extracted. The steady-state levels of endogenous Smad1 were analyzed by Western blot using Smad1 antibody (Santa Cruz).
# BMP-2 protein = BMP-2 protein production by ELISA, MG-63 cell lysates; type: cell-based; conditions: cultured human MG-63 osteoblastic cells, 24 h
# Experimental: MG-63 cells were plated in 12-well culture plates at the density of 2.5×10^5 cells/well and cultured with αMEM supplemented with 10% FCS for 24 h. The cells were treated with the proteasome inhibitors epoxomicin and PSI for 24 h. After incubation, the cell lysates were extracted with 150 μl lysis buffer (50 mM TrisHCl pH 8.0, 150 mM NaCl, 1% NP40) with protease inhibitors. The lysates were used to measure the BMP-2 protein production by ELISA.
# For protein production, 96-well Dynatech white plates were coated with mouse anti-hBMP-2 monoclonal antibody (raised against rhBMP-2) at 1 μg/ml in PBS (100 μl/well) and incubated overnight at 4° C. The following procedures were performed at room temperature. The plates were washed 3 times with 300 μl of PBS-T wash buffer (PBS and 0.05% Tween) and then blocked with 300 μl 0.2% I-Block solution (0.2% I-Block in PBS-T, Applied Biosystems) for 2 h. 100 μl cell lysates were then added and incubated with coated antibody for 2 h. […] After 3 time washing with wash buffer and 3 time washing with assay buffer, the plates were incubated with 100 μl Tropix enzyme substrate (Applied Biosystems) in dark for 10 min and then read light emission with a Luminometer. rhBMP-2 (R&D) was used to generate the standard curve.
# Gli3 = Gli3 processing in 293 cells transfected with Flag-Gli3, Western blot; type: cell-based, human; conditions: for band of short form Gli3^85: FIG. 2a
# Experimental: (§1) Full-length human Gli3 expression plasmid (pact-Flag-Gli3) was kindly provided by Dr. Shunsuke Ishii (Dai, P., et al., J. Biol. Chem. (1999) 274:8143-8152). The molecular weights for expressed Gli3 proteins by transfection of full-length Gli3 cDNA is about 190 kd (Gli3^190) and the processed form of Gli3 is about 85 kd (Gli3^85).
# 293 cells were plated in 6-well culture plates and cultured with Dulbecco's modified Eagle's medium (DMEM, Sigma). 24 hours after plating, the cells were transiently transfected with Flag-Gli3 cDNA (1 μg/well) and treated with 3-isobutyl-1-methylxanthine (IBMX, 200 μM) in the presence or absence of 1, 10 and 100 nM epoxomicin or PS-1. The steady-state protein levels of Gli3 precursor protein (Gli3^190) or processed form of Gli3 (Gli3^85) were detected by Western blot using anti-Flag antibody.
# BMP-2 mRNA = BMP-2 mRNA expression, Northern blot, MG-63 cells; type: cell-based; conditions: cultured human MG-63 osteoblastic cells
# Experimental: (§2) 2T3 murine osteoblast precursor cells and MG-63 human osteoblastic cells were cultured with α minimal essential medium (αMEM) supplemented with 10% fetal calf serum (FCS).
# (§3) MG-63 cells were plated in T-150 flasks at density of 2×10^6 cells per flask for RNA extraction. Total RNA was extracted from MG-63 cells using RNAzol B method (Tel-test Inc., Houston, Tex.). Enrichment of polyadenylated RNA was obtained using Stratagene oligo(dT) cellulose columns (Stratagene, San Diego, Calif.). 5 μg of poly (A^+) RNA was denatured in 2.2 M formaldehyde and 50% fornamide and run on an 1% agarose gel containing 2.2 M formaldehyde. The gels were transferred to a Nytran filter (Schleicher and Schuell, Keene, N.H.) by capillary blotting with 20× SSC (1× SSC=150 mM NaCl, 15 mM Na Citrate, pH 7.0). The RNA was then cross-linked to the filter by UV irradiation (Stratalink, Stratagene, San Diego, Calif.). Prehybridization was carried out at 56° C. in 5× SSC containing 50% formamide and 150 μg/ml of denatured salmon sperm DNA. After 1-2 h prehybridization, the DNA probes were added to the hybridization solution at a concentration of 5×10^5 cpm/ml. Hybridization was carried out for 15 h at 56° C. […] The filters were dried at room temperature, exposed at −70° C. overnight and then quantitated in cpm using an AMBIS Image Acquisition and Analysis System (AMBIS, San Diego, Calif.).
# [1] = test system: murine BMP-2 promoter (−2712/+165); assay: BMP-2 promoter-luciferase assay in stably transfected 2T3 cells; type: cell-based
# Experimental: as §2
# The cells were plated in 96-well culture plates and cultured for 24 h. The cells were then treated with different proteasome inhibitors or other compounds for additional 24 h. The cell lysates were extracted and luciferase activities were measured by a luciferase assay kit (Promega, Madison, Wis.) using a Luminometer.
# BMP-4 mRNA = BMP-4 mRNA expression, MG-63 cells; type: cell-based; conditions: cultured human MG-63 osteoblastic cells
# Experimental: as §2, §3
# [2] = test system: Gli3 precursor protein (Gli3^190); assay: Gli3 precursor (Gli3^190) degradation in C3H10T1/2 cells, Western blot; type: cell-based, mouse; conditions: IBMX 200 μM
# Experimental: as §1
# C3H10T1/2 multipotent progenitor cells were cultured with RPMI […] medium. The medium was purchased from Sigma (St. Louis, Mo.) and supplemented with 10% fetal calf serum (FCS). C3H10T1/2 cells were plated in 6-well culture plates at the density of 2×10^5 cells/well and transfected with Flag-Gli3 (2 μg/well) and treated with IBMX (200 μM) in the presence or absence of 10 and 20 nM of epoxomicin. Gli3^190 protein expression was detected by Western blot using anti-Flag antibody.
# [3] = test system: neonatal murine calvarial bones; assay: Organ culture of neonatal murine calvarial bones, bone formation; type: cell-based, ICR Swiss mice; conditions: for effect on osteoblast differentiation and bone formation after transfection of trGli3: calvariae transfected with trGli3, epoxomicin 20 nM, 3 days, histology
# Experimental: Organ cultures of neonatal murine calvarial bones were used as described by Traianedes, K., et al., Endocrinology (1998) 139:3178-3184. Bones were removed from the calvaria of 4-5 day old ICR Swiss mice and cultured in BGJ medium with 0.1% BSA for 72 hours together with test compounds. Mouse noggin/FC chimera was purchased from R&D Systems, Stillwater, Minn., and added at 2 μg/ml.
# Neonatal murine calvariae were transfected with either empty vector or truncated Gli3 (trGli3) using lipofectamine plus reagents for the first 24 hours and then treated with epoxomicin (20 nM) for the remaining 3 days of the assay according to Traianedes, et al., 1998 (supra).
# [4] = noggin 2 μg/ml, 72 hours culture
compound,measurement,setting,value
CC(C)C[C@@H](C=O)NC(=O)[C@H](CC(C)C)NC(=O)[C@H](CC(C)C)NC(=O)OCc1ccccc1 [MG-132] (Cbz-Leu-Leu-Leu-aldehyde),Smurf1-induced Smad1 degradation,"Smad1; C2C12 cells, 5 μM",partially or completely reversed
same,increase of endogenous Smad1 protein level,endogenous Smad1; 5 μM,6.5 fold
CC[C@H](C)[C@H](NC(=O)[C@H]([C@@H](C)CC)N(C)C(C)=O)C(=O)N[C@H](C(=O)N[C@@H](CC(C)C)C(=O)[C@@]1(C)CO1)[C@@H](C)O [epoxomicin],BMP-2 protein expression,BMP-2 protein,increased
same,band of short form Gli3^85,Gli3; 1 nM epoxomicin,substantially reduced
same,band of short form Gli3^85,Gli3; 10 nM epoxomicin,abolished
same,Gli3 processing to its processed shorter form,Gli3; IBMX 200 μM,impaired
same,BMP-2 mRNA expression,BMP-2 mRNA,increased
same,Smurf1-induced Smad1 degradation,"Smad1; C2C12 cells, 10, 20 and 40 nM, FIG. 5c",partially or completely reversed
same,potency as stimulators of BMP-2 expression compared with the statins,[1],considerably more potent
same,luciferase activity (BMP-2 promoter),[1]; treated 24 h,increased
same,expression of BMP-4 mRNA,BMP-4 mRNA,no effect
same,degradation of Gli3 precursor protein (Gli3^190),[2],prevent the degradation
same,bone formation in calvarial cultures,[3]; 72 hours culture,bone stimulating effects
same,effect on osteoblast differentiation and bone formation after transfection of trGli3,[3],impaired markedly
CC(=O)N[C@@H](CSC(=O)[C@]1([C@@H](O)C(C)C)NC(=O)[C@H](C)[C@@H]1O)C(=O)O [lactacystin],Smurf1-induced Smad1 degradation,"Smad1; C2C12 cells, 10 μM",partially or completely reversed
same,increase of endogenous Smad1 protein level,endogenous Smad1; 10 μM,3.7 fold
"aFGF: acidic fibroblast growth factor, unrelated anabolic agent",bone formation in calvarial cultures,[3]; 72 hours culture,bone formation stimulated
same,effect on osteoblast differentiation and bone formation after transfection of trGli3,[3],no effect
noggin,effect of noggin on bone formation stimulated by aFGF,[3]; [4],no effect
same,effect of noggin on bone stimulating effect of BMP-2,[3]; [4],inhibited
same,effect of noggin on bone stimulating effect of PS-1,[3]; [4],inhibited
same,effect of noggin on bone stimulating effect of epoxomicin,[3]; [4],inhibited
